In the test the test system is ERK phosphorylation. Briefly: Analysis of ERK phosphorylation (Alphascreen SureFire Phospho-ERK 1/2). The settings on record: cells treated for 1 h; human melanoma cells, human and mouse colon cancer cells; read-out: Minimum concentration (nM) required for ≧80% inhibition of pERK. Format: cell-based, human and mouse. On the procedure:
This assay was carried out with human melanoma cells, human and mouse colon cancer cells. Cells were treated for 1 h with various concentrations of test compounds. ERK phosphorylation analysis was performed using the Alphascreen SureFire Phospho-ERK 1/2 Kit (Perkin Elmer), by following the manufacturer's instructions. % inhibition of ERK phosphorylation was determined as: 100−{(RFU test−RFU lysis buffer control)/(RFU vehicle treated control−RFU lysis buffer control)}×100. Percentage inhibition at concentrations of 0.01 nM, 0.03 nM, 0.1-0.9 nM, 1 nM to 3 nM, 4-100 nM, and >100 nM, for the stated examples is setworth here. The percentage inhibition at the above depicted concentrations for the compounds stated are given in the following groups.

Drawing on patent US9428499B2, “Heterocyclyl compounds as MEK inhibitors” (LUPIN LIMITED, priority 2012, dated 2016), this text covers IC80 for 24 compounds.

In the case of `Cc1c(=O)n(C)c(Nc2ccc(I)cc2F)c2c(=O)[nH]c(=O)n(-c3cccc(C(=O)NC4CCOCC4)c3)c12` [Compound 13, 3-(5-((2-fluoro-4-iodophenyl)amino)-6,8-dimethyl-2,4,7-trioxo-3,4,6,7-tetrahydropyrido[4,3-d]pyrimidin-1(2H)-yl)-N-(tetrahydro-2H-pyran-4-yl)benzamide], the IC80 was found to be 0.01 nM.

On to `Cc1c(=O)n(C)c(Nc2ccc(I)cc2F)c2c(=O)[nH]c(=O)n(-c3cccc(C(O)C(N)=O)c3)c12` (stereo not drawn) [Compound 14, 2-(3-(5-((2-fluoro-4-iodophenyl)amino)-6,8-dimethyl-2,4,7-trioxo-3,4,6,7-tetrahydropyrido[4,3-d]pyrimidin-1(2H)-yl)phenyl)-2-hydroxyacetamide], for which the IC80 lay in the range of 4 to 100 nM.

Regarding `CNC(=O)CCc1cccc(-n2c(=O)[nH]c(=O)c3c(Nc4ccc(I)cc4F)n(C)c(=O)c(C)c32)c1` [Compound 15, 3-(3-(5-((2-fluoro-4-iodophenyl)amino)-6,8-dimethyl-2,4,7-trioxo-3,4,6,7-tetrahydropyrido[4,3-d]pyrimidin-1(2H)-yl)phenyl)-N-methylpropanamide], the IC80 is 1 to 3 nM.

For the compound `Cc1c(=O)n(C)c(Nc2ccc(I)cc2F)c2c(=O)[nH]c(=O)n(-c3cccc(C(=O)N4CCS(=O)(=O)C4)c3)c12` [Compound 17, 1-(3-(1,1-dioxidothiazolidine-3-carbonyl)phenyl)-5-((2-fluoro-4-iodophenyl)amino)-6,8-dimethylpyrido[4,3-d]pyrimidine-2,4,7(1H,3H,6H)-trione], the IC80 lay in the range of 0.1 to 0.9 nM.

Take `Cc1c(=O)n(C)c(Nc2ccc(I)cc2F)c2c(=O)[nH]c(=O)n(-c3cccc(C(=O)N4CCC(O)CC4)c3)c12` [Compound 18, 5((2-fluoro-4-iodophenyl)amino)-1-(3-(4-hydroxypiperidine-1-carbonyl)phenyl)-6,8-dimethylpyrido[4,3-d]pyrimidine-2,4,7(1H,3H,6H)-trione]: the IC80 fell in the range of 4 to 100 nM.

With `Cc1c(=O)n(C)c(Nc2ccc(I)cc2F)c2c(=O)[nH]c(=O)n(-c3cccc(CCC(=O)NC4CC4)c3)c12` [Compound 19, N-cyclopropyl-3-(3-(5-((2-fluoro-4-iodophenyl)amino)-6,8-dimethyl-2,4,7-trioxo-3,4,6,7-tetrahydropyrido[4,3-d]pyrimidin-1(2H)-yl)phenyl)propanamide], the IC80 lay within 4 to 100 nM.

With `Cc1c(=O)n(C)c(Nc2ccc(I)cc2F)c2c(=O)[nH]c(=O)n(-c3cccc(OC(C)(C)C(N)=O)c3)c12` [Compound 20, 2-(3-(5-((2-fluoro-4-iodophenyl)amino)-6,8-dimethyl-2,4,7-trioxo-3,4,6,7-tetrahydropyrido[4,3-d]pyrimidin-1(2H)-yl)phenoxy)-2-methylpropanamide], the IC80 fell in the range of 1 to 3 nM.

For the compound `Cc1c(=O)n(C)c(Nc2ccc(I)cc2F)c2c(=O)[nH]c(=O)n(-c3cccc(C(=O)N4CCN(C)CC4)c3)c12` [Compound 21, 5-((2-fluoro-4-iodophenyl)amino)-6,8-dimethyl-1-(3-(4-methylpiperazine-1-carbonyl)phenyl)pyrido[4,3-d]pyrimidine-2,4,7(1H,3H,6H)-trione], the IC80 is 0.1 to 0.9 nM.

As to `Cc1c(=O)n(C)c(Nc2ccc(I)cc2F)c2c(=O)[nH]c(=O)n(-c3cccc(C(=O)N4CCC(O)C4)c3)c12` (stereo not drawn) [Compound 22, 5-((2-fluoro-4-iodophenyl)amino)-1-(3-(3-hydroxypyrrolidine-1-carbonyl)phenyl)-6,8-dimethylpyrido[4,3-d]pyrimidine-2,4,7(1H,3H,6H)-trione], the IC80 fell in the range of 4 to 100 nM.

For `Cc1c(=O)n(C)c(Nc2ccc(I)cc2F)c2c(=O)[nH]c(=O)n(-c3cccc(C(=O)N4CCNCC4)c3)c12` [Compound 23, 5-((2-fluoro-4-iodophenyl)amino)-6,8-dimethyl-1-(3-(piperazine-1-carbonyl)phenyl)pyrido[4,3-d]pyrimidine-2,4,7(1H,3H,6H)-trione], the IC80 was 4 to 100 nM.

`Cc1c(=O)n(C)c(Nc2ccc(I)cc2F)c2c(=O)n(C3CC3)c(=O)n(-c3cccc(C(=O)N4CCC4)c3)c12` [Compound 24, 1-(3-(azetidine-1-carbonyl)phenyl)-3-cyclopropyl-5-((2-fluoro-4-iodophenyl)amino)-6,8-dimethylpyrido[4,3-d]pyrimidine-2,4,7(1H,3H,6H)-trione]: the IC80 was in the range of 0.1 to 0.9 nM.

As for `Cc1c(=O)n(C)c(Nc2ccc(I)cc2F)c2c(=O)n(C3CC3)c(=O)n(-c3cccc(OCC(=O)NC4CC4)c3)c12` [Compound 25, N-cyclopropyl-2-(3-(3-cyclopropyl-5-((2-fluoro-4-iodophenyl)amino)-6,8-dimethyl-2,4,7-trioxo-3,4,6,7-tetrahydropyrido[4,3-d]pyrimidin-1(2H)-yl)phenoxy)acetamide], the IC80 was 0.1 to 0.9 nM.

As to `Cc1c(=O)n(C)c(Nc2ccc(I)cc2F)c2c(=O)n(C3CC3)c(=O)n(-c3cccc(CC(N)=O)c3)c12` [Compound 26, 2-(3-(3-cyclopropyl-5-((2-fluoro-4-iodophenyl)amino)-6,8-dimethyl-2,4,7-trioxo-3,4,6,7-tetrahydropyrido[4,3-d]pyrimidin-1(2H)-yl)phenyl)acetamide], the IC80 was in the range of 4 to 100 nM.

Take `Cc1c(=O)n(C)c(Nc2ccc(I)cc2F)c2c(=O)n(C3CC3)c(=O)n(-c3cccc(C(=O)N4CCCC4)c3)c12` [Compound 27, 3-cyclopropyl-5-((2-fluoro-4-iodophenyl)amino)-6,8-dimethyl-1-(3-(pyrrolidine-1-carbonyl)phenyl)pyrido[4,3-d]pyrimidine-2,4,7(1H,3H,6H)-trione]: the IC80 lay in the range of 1 to 3 nM.

For the compound `Cc1c(=O)n(C)c(Nc2ccc(I)cc2F)c2c(=O)n(C3CC3)c(=O)n(-c3cccc(C(C)(C)C(N)=O)c3)c12` [Compound 28, 2-(3-(3-cyclopropyl-5-((2-fluoro-4-iodophenyl)amino)-6,8-dimethyl-2,4,7-trioxo-3,4,6,7-tetrahydropyrido[4,3-d]pyrimidin-1(2H)-yl)phenyl)-2-methylpropanamide], the IC80 lay within 0.1 to 0.9 nM.

Consider `Cc1c(Nc2ccc(I)cc2F)c2c(=O)n(C3CC3)c(=O)n(-c3cccc(C(F)(F)C(N)=O)c3)c2n(C)c1=O` [Compound 30, 2-(3-(3-cyclopropyl-5-((2-fluoro-4-iodophenyl)amino)-6,8-dimethyl-2,4,7-trioxo-3,4,7,8-tetrahydropyrido[2,3-d]pyrimidin-1(2H)-yl)phenyl)-2,2-difluoroacetamide], for which the IC80 was 1 to 3 nM.

Turning to `Cc1c(=O)n(C)c(Nc2ccc(I)cc2F)c2c(=O)n(C3CC3)c(=O)n(-c3cccc(CC(=O)NC4COC4)c3)c12` [Compound 31, 2-(3-(3-cyclopropyl-5-((2-fluoro-4-iodophenyl)amino)-6,8-dimethyl-2,4,7-trioxo-3,4,6,7-tetrahydropyrido[4,3-d]pyrimidin-1(2H)-yl)phenyl)-N-(oxetan-3-yl)acetamide], the IC80 was 0.01 nM.

`Cc1c(=O)n(C)c(Nc2ccc(I)cc2F)c2c(=O)n(C3CC3)c(=O)n(-c3cccc(C(O)C(N)=O)c3)c12` (stereo not drawn) [Compound 32, 2-(3-(3-cyclopropyl-5-((2-fluoro-4-iodophenyl)amino)-6,8-dimethyl-2,4,7-trioxo-3,4,6,7-tetrahydropyrido[4,3-d]pyrimidin-1(2H)-yl)phenyl)-2-hydroxyacetamide]: the IC80 is 1 to 3 nM.

Consider `Cc1c(=O)n(C)c(Nc2ccc(I)cc2F)c2c(=O)n(C3CC3)c(=O)n(-c3cccc(CC(=O)N4CC(O)C4)c3)c12` [Compound 33, 3-cyclopropyl-5-((2-fluoro-4-iodophenyl)amino)-1-(3-(2-(3-hydroxyazetidin-1-yl)-2-oxoethyl)phenyl)-6,8-dimethylpyrido[4,3-d]pyrimidine-2,4,7(1H,3H,6H)-trione], for which the IC80 lay in the range of 1 to 3 nM.

Take `Cc1c(=O)n(C)c(Nc2ccc(I)cc2F)c2c(=O)n(C3CC3)c(=O)n(-c3cccc(CCC(N)=O)c3)c12` [Compound 34, 3-(3-(3-cyclopropyl-5-((2-fluoro-4-iodophenyl)amino)-6,8-dimethyl-2,4,7-trioxo-3,4,6,7-tetrahydropyrido[4,3-d]pyrimidin-1(2H)-yl)phenyl)propanamide]: the IC80 was in the range of 1 to 3 nM.

In the case of `Cc1c(=O)n(C)c(Nc2ccc(I)cc2F)c2c(=O)n(C3CC3)c(=O)n(-c3cccc(OCC(N)=O)c3)c12` [Compound 35, 2-(3-(3-cyclopropyl-5-((2-fluoro-4-iodophenyl)amino)-6,8-dimethyl-2,4,7-trioxo-3,4,6,7-tetrahydropyrido[4,3-d]pyrimidin-1(2H)-yl)phenoxy)acetamide], the IC80 is 0.03 nM.

Turning to `CNC(=O)CCc1cccc(-n2c(=O)n(C3CC3)c(=O)c3c(Nc4ccc(I)cc4F)n(C)c(=O)c(C)c32)c1` [Compound 36, 3-(3-(3-cyclopropyl-5-((2-fluoro-4-iodophenyl)amino)-6,8-dimethyl-2,4,7-trioxo-3,4,6,7-tetrahydropyrido[4,3-d]pyrimidin-1(2H)-yl)phenyl)-N-methylpropanamide], the IC80 lay in the range of 1 to 3 nM.

For the compound `Cc1c(=O)n(C)c(Nc2ccc(I)cc2F)c2c(=O)n(C3CC3)c(=O)n(-c3cccc(C(=O)N4CCS(=O)(=O)C4)c3)c12` [Compound 38, 3-cyclopropyl-1-(3-(1,1-dioxidothiazolidine-3-carbonyl)phenyl)-5-((2-fluoro-4-iodophenyl)amino)-6,8-dimethylpyrido[4,3-d]pyrimidine-2,4,7(1H,3H,6H)-trione], the IC80 is 0.1 to 0.9 nM.

In the case of `Cc1c(=O)n(C)c(Nc2ccc(I)cc2F)c2c(=O)n(C3CC3)c(=O)n(-c3cccc(C(=O)N4CCS(=O)(=O)CC4)c3)c12` [Compound 39, 3-cyclopropyl-1-(3-(1,1-dioxidothiomorpholine-4-carbonyl)phenyl)-5-((2-fluoro-4-iodophenyl)amino)-6,8-dimethylpyrido[4,3-d]pyrimidine-2,4,7(1H,3H,6H)-trione], the IC80 fell in the range of 1 to 3 nM.
